# Measurements as given in a melting point compilation (Tetko et al.; mined from patent text by program, amines drawn as free bases though some values may be those of a salt).
row,Compound,melting point [°C]
1,COc1ccc2ncc(CO)cc2c1,92 to 93
2,COC(=O)c1ccccc1C=CC(=O)C=Cc1ccccc1C(=O)OC,221 to 223
3,CCNc1ncnc2c1ncn2Cc1c(F)cccc1Cl,175 to 176
4,COc1ccc(C(=O)C23CC4CC(C2)CC(C(=O)c2ccc(OC)cc2)(C4)C3)cc1,148 to 150
5,OC(c1cccc2nc3n(c12)CCCN3c1ccc(Cl)cc1Cl)C1CC1 (stereo not given),208 to 209
6,CCOC(=O)C(Cc1ccc(OCCn2c(=O)sc3cc(C(=O)C4CC4)ccc32)cc1)OCC(F)(F)F (stereo not given),113 to 115
7,CC(C)(C)NC(=O)C(C)(C)N(OC(c1ccccc1)c1ccccc1)C(C)(C)C,89 to 92
8,NC(=O)C(CCO)N1CCCC1=O (stereo not given),164 to 165
9,CCOC(=O)c1oc(C)c(O)c1O,120 to 121
10,CN1C(=O)C=C(c2ccc3c(c2)CCCC3)C1=O,104 to 107
11,COC(=O)CCc1cc(Cl)ccc1C(=O)CCCNC(C)=O,46 to 48
12,Brc1ccc2[nH]c3cnc(-c4ccon4)cc3c2c1,292 to 293
13,O=C(O)C1=Cc2ccccc2NC1,223 to 226
14,O=C(CCCCl)Nc1ccc2c(c1)C(=O)c1cc(NC(=O)CCCCl)ccc1C2=O,234
15,CCCCCC(=O)c1c[nH]c2c(OC)cccc2c1=O,169 to 171
16,Cc1nn(C)c(NN)c1[N+](=O)[O-],177 to 179
17,CCCCCCCC(c1cc(C)ccc1O)c1cc(C)ccc1O,108 to 109

row,Compound,melting point [°C]
1,O=C(c1ccc(-c2ccc(-c3ccc(-c4ccc(C(=O)c5c(F)c(F)c(F)c(F)c5F)s4)s3)s2)s1)c1c(F)c(F)c(F)c(F)c1F,291 to 294
2,C=CCNC(=S)Nc1cc(=N)n2c(n1)SCCC2,196 to 197
3,CC(=O)NC[C@H]1CN(c2ccc(N3CCC(=C(C#N)C(=O)N4CCCC4)CC3)c(F)c2)C(=O)O1,125 to 128
4,CCCN(CCC)C1Cc2cc(C)cc3ncn(c23)C1 (stereo not given),91 to 94
5,Cc1ccc(NS(=O)(=O)c2cccc(C#N)c2)c2[nH]cc(C#N)c12,220 to 221
6,Cc1nc(-c2ccc(-c3ccc(C(=O)Nc4ccc5c(c4)OC(CN(C)C)CO5)cc3)c(C)c2)no1 (stereo not given),92 to 94
7,C=C(C)Cc1c(O)cc(C)c(NC=O)c1C,207 to 209
8,CN(c1cccc2cc(C3=NCC4(CCN(S(C)(=O)=O)CC4)S3)[nH]c12)S(=O)(=O)c1cccs1,251
9,CC1(C)C=Cc2ccc(F)c(C#N)c2O1,99 to 101
10,CCCCCCCCCCCCCCCCS(=O)(=O)OC1CNC1,91 to 97
11,O=C(O)CCc1c(C(=O)O)[nH]c2cc(I)cc(I)c12,280 to 282
12,Nc1nc(NCCc2cc(Br)cs2)nc2c1ncn2C1OC(CO)C(O)C1O (stereo not given),136 to 144
13,C#CCNC(=NCCSCc1ccc(CN(C)C)o1)NC#N,122 to 124
14,Cn1c2c(c3ccccc31)SCCC2(C)C=O (stereo not given),119 to 123
15,CC1(C)OC(=O)Nc2ccc(-c3ccc(C#N)n3CC(=O)O)cc21,207 to 209
16,CNc1cc(Oc2cccc(C(F)(F)F)c2)nc(C(=O)NC(C)C)c1,89 to 90
17,COC(=O)C1(NC(=O)C2(Br)SC=C(Br)C2Br)CCCCCC1 (stereo not given),165 to 168

# Next, values leading:
row,melting point [°C],Compound
1,102 to 105,COc1cccc(-n2nc(-c3ccccc3)c3cccnc32)c1
2,74,CC(C)(OCc1cc2cc(Cl)ccc2n1S(=O)(=O)c1ccc2ncsc2c1)C(=O)O
3,112 to 114,NC(=O)C[C@H](NC(=O)CCc1ccc(OCc2ccccc2)cc1OCc1ccccc1)C(=O)N1CCN(Cc2ccccc2)CC1
4,156 to 157,COc1cc2nc(-c3ccccc3)nc(N3CCN(C(=O)Nc4ccc([N+](=O)[O-])cc4)CC3)c2cc1OC
5,117 to 118,O=C1c2cc(OCc3ccc4ccccc4n3)ccc2CCC1Cc1ccccc1 (stereo not given)
6,201 to 203,COc1ccc(N2CCN(C(=O)[C@H](Cc3ccccc3)NC(=O)Nc3n[nH]c(=S)s3)CC2)cc1
7,122,O=C(O)c1cccc(P(c2ccccc2)c2ccccc2)n1
8,171 to 172,NC(=O)N(O)CCOc1ccc2c(c1)CCN(Cc1ccc(-c3ccc(F)cc3)cc1)C2=O
9,86 to 88,CN(Cc1ccccc1)Cc1c(-c2ccccc2)sc(N)c1C(=O)c1ccc(Cl)cc1
10,143 to 150,CN1CCN(Cc2ccc(-c3cc4ncnc(Nc5ccc6[nH]ccc6c5)c4s3)cc2)CC1
11,211 to 213,O=C(Nc1cccc(-c2ccnc3c(C(=O)c4cccs4)cnn23)c1)c1ccccc1
12,260 to 262,O=C1NCCc2c(-c3cccnc3)[nH]c3cccc1c23
13,130 to 135,COc1ccccc1NC(=O)Nc1ccc2c(c1)CCN(C(=O)Nc1ccc(OCCO)cc1Cl)C2
14,168 to 170,Nn1c(-c2ccccc2Cl)nnc1-c1ccccc1Cl
15,125 to 127,O=C1N(CCC2CC2)c2ccccc2C12COc1cc3c(cc12)OCO3 (stereo not given)
16,146 to 147,Cc1cc2ccccc2c(-c2ccc(I)cc2)n1
